According to paper PMC6151383 (Molecules : A Journal of Synthetic Chemistry and Natural …, 2017):
Read-outs that look alike come from different tables or passages of the source.

What was measured:
M. kansasii 6509/96 = assay: In vitro antimycobacterial MIC, M. kansasii clinical isolate; assay type: cell-based; details: Mycobacterium kansasii
[1] = system: Escherichia coli CCM 4517; assay: Antibacterial microdilution broth MIC, E. coli; assay type: cell-based; details: Escherichia coli, CCM4517; 48 h incubation; read-out: MIC EC 48 h
[2] = system: Trichophyton interdigitale 445; assay: Antifungal microdilution broth MIC, T. interdigitale; assay type: cell-based
[3] = system: Mycobacterium tuberculosis 331/88 (H37Rv); assay: In vitro antimycobacterial MIC, M. tuberculosis; assay type: cell-based
[4] = system: Mycobacterium kansasii 235/80; assay: In vitro antimycobacterial MIC, M. kansasii 235/80; assay type: cell-based
[5] = system: Candida albicans ATCC 44859; assay: Antifungal microdilution broth MIC, C. albicans; assay type: cell-based
[6] = system: Staphylococcus aureus CCM 4516/08; assay: Antibacterial microdilution broth MIC, S. aureus; assay type: cell-based; details: Staphylococcus aureus, CCM4516; 48 h incubation; read-out: MIC SA 48 h
[7] = system: ESBL-positive Klebsiella pneumoniae J 14368/08
[8] = system: Lichtheimia corymbifera 272; assay: Antifungal microdilution broth MIC, L. corymbifera; assay type: cell-based; details: Lichtheimia corymbifera, 272; 48 h incubation; read-out: MIC LC 48 h
[9] = system: Mycobacterium avium 330/88; assay: In vitro antimycobacterial MIC, M. avium; assay type: cell-based
Candida krusei E28 = assay: Antifungal microdilution broth MIC, C. krusei; assay type: cell-based; details: Pichia kudriavzevii
[10] = system: Klebsiella pneumoniae D 11750/08
[11] = system: Staphylococcus epidermidis H 6966/08; assay: Antibacterial microdilution broth MIC, S. epidermidis; assay type: cell-based; details: Staphylococcus epidermidis
[12] = system: Pseudomonas aeruginosa CCM 1961; assay: Antibacterial microdilution broth MIC, P. aeruginosa; assay type: cell-based; details: Pseudomonas aeruginosa, CCM1961; 48 h incubation; read-out: MIC PA 48 h
[13] = system: Aspergillus fumigatus 231; assay: Antifungal microdilution broth MIC, A. fumigatus; assay type: cell-based; details: Aspergillus fumigatus, 231; 48 h incubation; read-out: MIC AF 48 h
Candida tropicalis 156 = assay: Antifungal microdilution broth MIC, C. tropicalis; assay type: cell-based
Trichosporon asahii 1188 = assay: Antifungal microdilution broth MIC, T. asahii; assay type: cell-based
Candida glabrata 20/I = assay: Antifungal microdilution broth MIC, C. glabrata; assay type: cell-based; details: Nakaseomyces glabratus
[14] = system: Enterococcus faecalis J 14365/08; assay: Antibacterial microdilution broth MIC, E. faecalis; assay type: cell-based; details: Enterococcus faecalis, J14365/08; 48 h incubation; read-out: MIC EF 48 h
[15] = 6509/96, 168 h, 7 d incubation, read-out: MIC M. kansasii 6509/96 7 d
[16] = 6509/96, 336 h, 14 d incubation, read-out: MIC M. kansasii 6509/96 14 d
[17] = 6509/96, 504 h, 21 d incubation, read-out: MIC M. kansasii 6509/96 21 d
[18] = Trichophyton interdigitale, 445, 72 h, read-out: MIC TI 72 h
[19] = Trichophyton interdigitale, 445, 120 h, read-out: MIC TI 120 h
[20] = 336 h, 14 d incubation, read-out: MIC Mtb. 331/88 14 d
[21] = 504 h, 21 d incubation, read-out: MIC Mtb. 331/88 21 d
[22] = 235/80, 168 h, 7 d incubation, read-out: MIC M. kansasii 235/80 7 d
[23] = 235/80, 336 h, 14 d incubation, read-out: MIC M. kansasii 235/80 14 d
[24] = 235/80, 504 h, 21 d incubation, read-out: MIC M. kansasii 235/80 21 d
[25] = ATCC44859, 24 h, read-out: MIC CA 24 h
[26] = ATCC44859, 48 h, read-out: MIC CA 48 h
[27] = 330/88, 336 h, 14 d incubation, read-out: MIC M. avium 330/88 14 d
[28] = 330/88, 504 h, 21 d incubation, read-out: MIC M. avium 330/88 21 d
[29] = E28, 48 h incubation, read-out: MIC CK 48 h
[30] = H6966/08, 48 h incubation, read-out: MIC SE 48 h
[31] = Candida tropicalis, 156, 48 h incubation, read-out: MIC CT 48 h
[32] = Trichosporon asahii, 1188, 24 h, read-out: MIC TA 24 h
[33] = Trichosporon asahii, 1188, 48 h, read-out: MIC TA 48 h
[34] = Trichophyton interdigitale, 445, 72 h incubation, read-out: MIC TI 72 h
[35] = Trichophyton interdigitale, 445, 120 h incubation, read-out: MIC TI 120 h
[36] = H6966/08, 24 h, read-out: MIC SE 24 h
[37] = H6966/08, 48 h, read-out: MIC SE 48 h
[38] = Candida tropicalis, 156, 24 h, read-out: MIC CT 24 h
[39] = Candida tropicalis, 156, 48 h, read-out: MIC CT 48 h
[40] = ATCC44859, 48 h incubation, read-out: MIC CA 48 h
[41] = Trichosporon asahii, 1188, 48 h incubation, read-out: MIC TA 48 h
[42] = 48 h incubation, read-out: MIC CG 48 h

O=S(=O)(Nc1ncccn1)c1ccc(N=Cc2cc(Br)ccc2O)cc1 [Compound 2d, 4-[(5-Bromo-2-hydroxybenzylidene)amino]-N-(pyrimidin-2-yl)benzenesulfonamide]
32 µM: MIC (M. kansasii 6509/96; [15]) | MIC (M. kansasii 6509/96; [16]) | MIC [3, 21] | MIC [4, 22]
> 500 µM: MIC [8] | MIC [14]
125 µM: MIC [5, 25] | MIC [5, 26] | MIC [9, 27] | MIC [9, 28]
250 µM: MIC (Candida krusei E28; [29]) | MIC [11, 30] | MIC [13] | MIC (Candida tropicalis 156; [31])
16 µM: MIC [3, 20]
500 µM: MIC [1] | MIC [6] | MIC KP-E 24 h [7] | MIC KP-E 48 h [7] | MIC KP 24 h [10] | MIC KP 48 h [10] | MIC [12]
62.5 µM: MIC (M. kansasii 6509/96; [17]) | MIC [2, 18] | MIC [2, 19] | MIC [4, 23] | MIC [4, 24] | MIC (Trichosporon asahii 1188; [32]) | MIC (Trichosporon asahii 1188; [33]) | MIC (Candida glabrata 20/I; 24 h, read-out: MIC CG 24 h) | MIC (Candida glabrata 20/I; 48 h, read-out: MIC CG 48 h)

O=S(=O)(Nc1ncccn1)c1ccc(N=Cc2cc(I)ccc2O)cc1 [Compound 2e, 4-[(2-Hydroxy-5-iodobenzylidene)amino]-N-(pyrimidin-2-yl)benzenesulfonamide]
31.2 µM: MIC [2, 34] | MIC [2, 35]
250 µM: MIC [1] | MIC [6] | MIC [9, 28] | MIC [13]
> 500 µM: MIC [8]
500 µM: MIC KP-E 24 h [7] | MIC KP-E 48 h [7] | MIC KP 24 h [10] | MIC KP 48 h [10] | MIC [12] | MIC [14]
125 µM: MIC [3, 21] | MIC [4, 24] | MIC [5, 26] | MIC [9, 27] | MIC (Candida krusei E28; E28, 48 h, read-out: MIC CK 48 h) | MIC [11, 37] | MIC (Candida tropicalis 156; [38]) | MIC (Candida tropicalis 156; [39]) | MIC (Trichosporon asahii 1188; [32]) | MIC (Trichosporon asahii 1188; [33])
32 µM: MIC (M. kansasii 6509/96; [15]) | MIC (M. kansasii 6509/96; [16]) | MIC [4, 22]
62.5 µM: MIC (M. kansasii 6509/96; [17]) | MIC [3, 20] | MIC [4, 23] | MIC [5, 25] | MIC (Candida krusei E28; E28, 24 h, read-out: MIC CK 24 h) | MIC [11, 36] | MIC (Candida glabrata 20/I; 24 h, read-out: MIC CG 24 h) | MIC (Candida glabrata 20/I; 48 h, read-out: MIC CG 48 h)

O=[N+]([O-])c1ccc(O)c(C=Nc2ccc(S(=O)(=O)Nc3ncccn3)cc2)c1 [Compound 2f, 4-[(2-Hydroxy-5-nitrobenzylidene)amino]-N-(pyrimidin-2-yl)benzenesulfonamide]
500 µM: MIC [4, 24] | MIC [5, 40] | MIC KP-E 24 h [7] | MIC KP-E 48 h [7] | MIC [8] | MIC [9, 27] | MIC [11, 30] | MIC [12] | MIC [14]
>500 µM: MIC KP 24 h [10] | MIC KP 48 h [10]
1000 µM: MIC [9, 28]
62.5 µM: MIC [2, 34] | MIC [2, 35] | MIC ([2]; Trichophyton interdigitale, 445, incubation time not given, read-out: MIC for T. interdigitale)
125 µM: MIC (M. kansasii 6509/96; [15]) | MIC [4, 22]
250 µM: MIC (M. kansasii 6509/96; [16]) | MIC (M. kansasii 6509/96; [17]) | MIC [1] | MIC [3, 20] | MIC [3, 21] | MIC [4, 23] | MIC [6] | MIC (Candida glabrata 20/I; [42])
> 500 µM: MIC (Candida krusei E28; [29]) | MIC [13] | MIC (Candida tropicalis 156; [31]) | MIC (Trichosporon asahii 1188; [41])

COc1ccc(O)c(C=Nc2ccc(S(=O)(=O)Nc3ncccn3)cc2)c1 [Compound 2h, 4-[(2-Hydroxy-5-methoxybenzylidene)amino]-N-(pyrimidin-2-yl)benzenesulfonamide]
> 500 µM: MIC [1] | MIC [8] | MIC (Candida krusei E28; [29]) | MIC [13] | MIC [14]
500 µM: MIC [5, 40] | MIC [6] | MIC [12] | MIC (Candida tropicalis 156; [31]) | MIC (Trichosporon asahii 1188; [41]) | MIC (Candida glabrata 20/I; [42])
125 µM: MIC [9, 27] | MIC [9, 28]
32 µM: MIC (M. kansasii 6509/96; [17]) | MIC [3, 20] | MIC [4, 23]
16 µM: MIC (M. kansasii 6509/96; [15]) | MIC (M. kansasii 6509/96; [16]) | MIC [4, 22]
62.5 µM: MIC [2, 18] | MIC [2, 19] | MIC ([2]; Trichophyton interdigitale, 445, read-out: MIC for T. interdigitale) | MIC [3, 21] | MIC [4, 24] | MIC [11, 36] | MIC [11, 37]
>500 µM: MIC KP-E 24 h [7] | MIC KP-E 48 h [7] | MIC KP 24 h [10] | MIC KP 48 h [10]

O=S(=O)(Nc1ncccn1)c1ccc(N=Cc2cccc(Cl)c2O)cc1 [Compound 2l, 4-[(3-Chloro-2-hydroxybenzylidene)amino]-N-(pyrimidin-2-yl)benzenesulfonamide]
62.5 µM: MIC [3, 21] | MIC [4, 24] | MIC [5, 25] | MIC [5, 26]
16 µM: MIC (M. kansasii 6509/96; [15]) | MIC (M. kansasii 6509/96; [16]) | MIC [4, 22]
32 µM: MIC (M. kansasii 6509/96; [17]) | MIC [3, 20] | MIC [4, 23]
>500 µM: MIC KP-E 24 h [7] | MIC KP-E 48 h [7] | MIC KP 24 h [10] | MIC KP 48 h [10]
31.2 µM: MIC [2, 34] | MIC [2, 35]
125 µM: MIC [9, 27] | MIC (Candida tropicalis 156; [38]) | MIC (Candida tropicalis 156; [39]) | MIC (Trichosporon asahii 1188; [32]) | MIC (Trichosporon asahii 1188; [33]) | MIC (Candida glabrata 20/I; 24 h, read-out: MIC CG 24 h) | MIC (Candida glabrata 20/I; 48 h, read-out: MIC CG 48 h)
250 µM: MIC [9, 28] | MIC (Candida krusei E28; [29]) | MIC [13]
> 500 µM: MIC [1] | MIC [6] | MIC [8] | MIC [11, 30] | MIC [12] | MIC [14]

OC(Cn1cncn1)(Cn1cncn1)c1ccc(F)cc1F [FLU, fluconazole, reference compound]
0.24 µM: MIC [5, 40]
> 500 µM: MIC [8] | MIC [13] | MIC (Candida tropicalis 156; [31])
250 µM: MIC (Candida krusei E28; [29])
125 µM: MIC [2, 35]
7.81 µM: MIC [2, 34]
500 µM: MIC (Trichosporon asahii 1188; [41]) | MIC (Candida glabrata 20/I; [42])

NNC(=O)c1ccncc1 [INH, isoniazid, reference compound]
> 250 µM: MIC [4, 22] | MIC [4, 23] | MIC [4, 24] | MIC [9, 27] | MIC [9, 28]
0.5 µM: MIC [3, 20]
8 µM: MIC (M. kansasii 6509/96; [15]) | MIC (M. kansasii 6509/96; [16]) | MIC (M. kansasii 6509/96; [17])
1 µM: MIC [3, 21]
